The nature of series [1]: Exposure profiles of Deg-AZM and metabolites in rat plasma, urine, feces and bile (UPLC-QTOF-MS). Format: in vivo, rats. Particulars: / = not detected. As to the method: The plasma samples at 0.167 h, 0.5 h, 3 h and 8 h after administration were obtained from the study of tissue distribution in rats ([Gu et al., 2024]). Urine, feces and bile samples at 0–24 h after administration were obtained from the excretion study of a single gavage administration of 25 mg/kg Deg-AZM in rats ([Gu et al., 2024]).
Plasma samples were precipitated with methanol at a ratio of 1:3. Urine samples were diluted with 50% methanol at a ratio of 1:80. The feces was thoroughly ground and sonicated with a 50% methanol at a ratio of 1 g/10 mL to obtain the homogenate, then the homogenate were precipitated with methanol at a ratio of 1:1. Bile samples were precipitated with 50% methanol at a ratio of 1:1. The above obtained samples were vortexed for 1 min and centrifugated at 4°C, 12,000 rpm for 10 min. Finally, the upper layer was analyzed using the UPLC-QTOF-MS system.
The metabolites of Deg-AZM in the plasma, urine, feces and bile samples were identified by UPLC-QTOF-MS system. Liquid chromatography was performed on an ACQUITY UPLC^TM I-Class UPLC unit with a Waters ACQUITY UPLC HSS T3 (100 × 2.1 mm, 1.8 µm). A gradient program was employed with the mobile phase combining solvent A (0.02% formic acid in 5% acetonitrile) and solvent B (acetonitrile) as follows: 100% A (0–0.5 min), 100%–85% A (0.5–7 min), 85%–5% A (7–9 min), 5% A (9–12 min), 5%–100% A (12–15 min). The flow rate was 0.40 mL/min. The column temperature was maintained at 40°C.
A Waters Q-TOF Xevo G2-XS Spectrometer equipped with ESI source under positive ion mode was utilized to conduct mass spectrometry detection, for which the MS^E mode was set at the mass range of 100–1,000 Da. The cone voltage was 40 V. The desolvation temperature was set at 500°C and source temperature was 100°C. The desolvation gas flow rate was 800 L/h and the cone gas flow rate was 50 L/h. In MS^E centroid mode, the MS data were acquired with the low energy function in the trap collision energy (6 eV), and the tandem mass data were acquired with the high energy function in the ramp trap collision energy (35–45 eV).
The extraction ion chromatogram of plasma samples at 0.167 h, 0.5 h, 3 h and 8 h after administration of Deg-AZM in rats was shown in Figure 2. The extraction ion chromatogram of urine, feces and bile samples collected from 0 to 24 h after oral administration of Deg-AZM in rats was shown in Figure 3. The AUC0-t of Deg-AZM and its metabolites in plasma sample were calculated by trapezoidal rule based on the chromatographic peak area. 21 metabolites were found in rat plasma, with M0 (Deg-AZM) and metabolite M2 (demethylated) being the main exposure forms in rat plasma. M0 and M2 accounted for 61.6% and 23.0% of the total related substances in rat plasma, respectively. The relative proportions of Deg-AZM and its metabolites in urine, feces and bile samples were evaluated by the chromatographic peak area, as shown in Figure 4. The detailed proportion of Deg-AZM and its metabolites could be found in Supplementary Table S1. M0 and 28 metabolites were found in the urine of rats. […] M0 and 42 metabolites were found in the feces of rats. Metabolite M1-2 (monohydroxylation, 18.1%) and metabolite M2 (16.6%) were the main forms of fecal excretion of Deg-AZM in rats after oral administration. M0 and 38 metabolites were found in the bile samples of rats. Metabolite M1-2 (monohydroxylation, 19.2%) and metabolite M2 (16.5%) were the main forms of biliary excretion of Deg-AZM in rats after oral administration.

For series [2], the target named is T1, CYP2C9 (Homo sapiens, UniProt P11712).
T1 construct: from tissue; host or cells: human liver microsomes
T1 sequence (P11712 whole entry): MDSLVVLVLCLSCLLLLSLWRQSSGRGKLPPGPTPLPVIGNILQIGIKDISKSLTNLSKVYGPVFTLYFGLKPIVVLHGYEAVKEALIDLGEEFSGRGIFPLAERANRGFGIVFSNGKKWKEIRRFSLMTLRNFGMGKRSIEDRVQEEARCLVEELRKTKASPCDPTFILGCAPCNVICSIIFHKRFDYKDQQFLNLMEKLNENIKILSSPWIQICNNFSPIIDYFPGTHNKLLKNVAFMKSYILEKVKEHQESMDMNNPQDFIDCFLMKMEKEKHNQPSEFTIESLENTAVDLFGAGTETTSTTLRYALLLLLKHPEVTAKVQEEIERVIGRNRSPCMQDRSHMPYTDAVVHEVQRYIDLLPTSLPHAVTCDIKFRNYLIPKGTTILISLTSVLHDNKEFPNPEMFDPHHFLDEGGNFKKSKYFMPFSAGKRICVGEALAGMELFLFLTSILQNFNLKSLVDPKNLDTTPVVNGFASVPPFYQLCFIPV
Nature of the series: HLM phenotyping assay with CYP2C9 inhibitor sulfaphenazole. The format is in vitro ADME. Particulars: 1 μM, HLM 0.5 mg/mL, NADPH, 90 min, with 10 µM sulfaphenazole. As to the method: Deg-AZM (1 μM) was treated with pooled HLM (0.5 mg/mL) and NADPH (1 mM) for 90 min with or without seven specific inhibitors (10 µM furafylline for CYP1A2, 10 µM ticlopidine for CYP2B6, 5 µM montelukast for CYP2C8, 10 µM sulfaphenazole for CYP2C9, 10 µM ticlopidine for CYP2C19, 2.5 µM quinidine for CYP2D6, 1 µM ketoconazole for CYP3A). Isoform-selective probe substrates, 10 µM phenacetin for CYP1A2, 20 µM bupropion for CYP2B6, 2 µM amodiaquine for CYP2C8, 5 µM diclofenac for CYP2C9, 20 µM S-mephenytoin for CYP2C19, 5 µM bufuralol for CYP2D6, 2 µM midazolam for CYP3A4, were used as positive controls.

Molecules are shown by their SMILES.

For the molecule `CCC1OC(=O)C(C)C(O)C(C)C(O)C(C)(O)CC(C)CN(C)C(C)C(O)C1(C)O` (centres unmarked) [Deg-AZM, Deglycosylated azithromycin], in series [1] (rat bile 0-24 h, single gavage 25 mg/kg Deg-AZM, by peak area), the “Proportion in total related substances, Bile” value stood at 7.95%. In addition, in series [1] (rat feces 0-24 h, single gavage 25 mg/kg Deg-AZM, by peak area), the “Proportion in total related substances, Feces” value worked out at 9.12%. Also, the “Proportion in total related substances, Plasma” value in series [1] (rat plasma 0.167-8 h after oral Deg-AZM, by AUC0-t of chromatographic peak area) worked out at 61.6%. Moreover, in series [1] (rat urine 0-24 h, single gavage 25 mg/kg Deg-AZM, by peak area), the “Proportion in total related substances, Urine” value was 62.9%. Further, in series [2], the Deg-AZM remaining came out at 67.5%.

Source of the values: paper PMC11750672, “The in vivo metabolic pathway of Deg-AZM and in vitro investigations into the contribution of drug metabolizing enzymes and drug transporters in the drug interactions of Deg-AZM, a clinical-stage new transgelin agonist” (Frontiers in Pharmacology, 2025).
